4 compounds from PubChem BioAssay (NCI) can be followed below.

Usually GI50 stands for the concentration that inhibits growth by half. Broadly, the TGI is the concentration at which net growth stops.

What all share (assay): DTP human tumour cell line panel, 48 h
Experiment [1] relates to A498 renal.
Experiment [2] concerns A549 NSCLC.
Experiment [3] has as its system CCRF-CEM leukemia.
The subject of experiment [4] is HCT-116 colon.
The subject of experiment [5] is HCT-15 colon.
Experiment [6] has as its system K-562 leukemia.
In experiment [7] the test system is OVCAR-8 ovarian.
The test system of experiment [8] is PC-3 prostate.
Experiment [9] concerns SK-MEL-2 melanoma.
Experiment [10] has as its system T-47D breast.

Several values for one entry are separate records, joined by “and”; a condition that tells them apart may be missing. Equal entries are not always repeated.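 Method: 48-hour compound exposure of cells in 96-well plates, five concentrations, linear interpolation of endpoints. At the GI50, growth is halved. The concentration for full growth arrest is given as TGI.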

As to `CC1=C(C(=O)Nc2ccc(F)c(Cl)c2)C(c2cccc(O)c2)NC(=S)N1` (centres undefined), the GI50 in [1] was 9.45 µM; in [2], 21 µM; in experiment [3], greater than 50 µM; in experiment [4], 34.2 µM; in experiment [5], 47.8 µM; in [6], 16 µM. For the same compound, the GI50 was 28.5 µM in [7], 32.1 µM in [8], 20.3 µM in experiment [9] and greater than 50 µM in experiment [10]. The TGI was 33.5 µM in experiment [1]; greater than 50 µM in experiment [2]; greater than 50 µM in experiment [3]; greater than 50 µM in experiment [4]; greater than 50 µM in experiment [5]; 42.5 µM in experiment [6]. Also, the TGI in experiment [7], in experiment [8], in experiment [9] and in [10] was greater than 50 µM in each case.
On to `O=C1CC2(CCCc3sccc32)C(=O)N1` (centres undefined), for which the TGI in experiment [1], in experiment [2], in experiment [3], in experiment [4], in experiment [5] and in experiment [6] was greater than 100 µM throughout. In addition, the TGI in experiment [7], in experiment [8], in [9] and in experiment [10] was greater than 100 µM each time.
Regarding `CC1/C=C/C=C/CC/C=C/C=C/C=C/C=C/C(OC2OC(C)C(O)C(N)C2O)CC2OC(CC(O)C(O)CCC(O)CC(O)CC(O)CC(=O)OC(C)C(C)C1O)CC(O)C2C(=O)O` (centres undefined), the GI50 in experiment [1] was 25.8 µg/mL; in [2] it was 24.5 µg/mL; in experiment [4], 37.7 µg/mL; in experiment [5], 43.8 µg/mL; in [6], 74.9 µg/mL; in experiment [7], 33.3 µg/mL. In addition, the results for the GI50 in [8], in [9] and in experiment [10] were 31.2 µg/mL, 31.8 µg/mL and 59.8 µg/mL, respectively. Besides, the TGI in experiment [1] is 33.2 µM and 46.5 µg/mL; in [2] it was 33 µM and 46.3 µg/mL; in experiment [3] it was 59.4 µM; in experiment [4], 32.1 µM and 112 µg/mL; in experiment [5], 82.2 µM and 150 µg/mL; in experiment [6], > 100 µM and 150 µg/mL. The TGI in experiment [7] is 47 µM and 74.6 µg/mL; in experiment [8] it was 36.4 µM and 75.7 µg/mL; in experiment [9] it was 92.4 µM and 94.1 µg/mL; in experiment [10], > 100 µM and 150 µg/mL.
On to `O=C(CCl)Nc1ccccc1SCc1cc(Cl)cc2c1OCOC2`, for which the GI50 in experiment [1] was 12.9 µM; in [2], 20.2 µM; in experiment [3] it was 2.18 µM; in experiment [4], 4.64 µM; in experiment [5], 6.4 µM; in experiment [6], 3.35 µM. Also, the GI50 was 13 µM in experiment [7], 11.4 µM in experiment [8], 11.4 µM in [9] and 9.82 µM in experiment [10]. In addition, the TGI in experiment [1] was determined as 26.2 µM; in experiment [2], 45.1 µM; in experiment [3], 5.35 µM; in experiment [4], 16.8 µM; in [5] it was 21.6 µM; in [6] it was 25.1 µM. For the same compound, the TGI in experiment [7] is 30.2 µM; in [8], 25.9 µM; in [9], 24.8 µM; in experiment [10] it was 45.2 µM.
